In patent US20050048007A1, “Plaque reducing composition” (INOBYS LTD., priority 2000, published 2005):
≈ marks a conversion by molar mass, not a printed value.

What was measured:
Experiment in all cases: MIC by serial dilutions in BHI broth (NCCLS)
Type in all cases: cell-based
A. viscosus = settings: Actinomyces viscosus, 37.5 degrees C., 24 hr, turbidity
Description: (§1) Efficacy of this delivery system was shown as follows: 1. Minimum Inhibitory Concentration (MIC)
(§2) High numbers of microorganisms inhabit the oral cavity. Aerobic and anerobic bacteria combine to produce plaque, the soft sticky film adhering to the surface of the teeth. These same bacteria produce sulfur compounds responsible for oral malodor. MIC studies are commonly used to evaluate the potential effectiveness of oral washes and rinses in reducing undesirable bacteria in the oral cavity.
(§3) This […] study evaluates and compares the minimum inhibitory concentration at which two antimicrobial preparations (Solutions A & B) prevent the growth of oral microorganisms recognized as typical of those responsible for plaque and oral malodor formation. Solution A represents Example 1 (above); solution B, 0.1% chlorhexidine, represents a bench mark for efficacy, in that it is commonly accepted and used by oral care professionals to reduce plaque and malodor causing microbes.
(§4) MICs were established using the method of serial dilutions in BHI broth as established by NCCLS (National Committee for Clinical Laboratory Standards). Viable isolates of select strains of oral microbes were obtained commercially and cultured for ongoing use in the study. Serial dilutions of each of the test solutions were added to test tubes containing cultures of each isolate in BHI broth. Tubes were incubated at 37.5 degrees C. for 24 hr. and evaluated for signs of microbial growth (turbidity). Blank tubes of BHI broth, with and without microbial inoculates, were concomitantly run as a control for process sterility and viability.

K. pneumonia = settings: Klebsiella pneumoniae, 37.5 degrees C., 24 hr, turbidity
Description: as §1, §2, §3, §4

S. mutans = settings: Streptococcus mutans, 37.5 degrees C., 24 hr, turbidity
Description: as §1, §2, §3, §4

S. sanguinis = settings: Streptococcus sanguinis, 37.5 degrees C., 24 hr, turbidity
Description: as §1, §2, §3, §4

S. sobrinus = settings: Streptococcus sobrinus, 37.5 degrees C., 24 hr, turbidity
Description: as §1, §2, §3, §4

V. atypica = settings: 37.5 degrees C., 24 hr, turbidity
Description: as §1, §2, §3, §4

MIC (A. viscosus): 320 µg/mL (≈ 633 µM)
MIC (K. pneumonia): 650 µg/mL (≈ 1290 µM)
MIC (S. mutans): 320 µg/mL (≈ 633 µM)
MIC (S. sanguinis): 80 µg/mL (≈ 158 µM)
MIC (S. sobrinus): 80 µg/mL (≈ 158 µM)
MIC (V. atypica): 160 µg/mL (≈ 317 µM)
SMILES: [H]/N=C(\N/C(=N/[H])NCCCCCCNC(=N)NC(=N)Nc1ccc(Cl)cc1)Nc1ccc(Cl)cc1 [0.1% CHX, chlorhexidine]
